Source: patent US9409908B2 (priority 2012, dated 2016)
Counter-ions that a name gives are not always drawn.

Key:
[1] = biological target: purified human plasma kallikrein (Homo sapiens (Human), UniProt P03952); assay: biochemical; type: biochemical; settings: read-out: Plasma Kallikrein Ki
[2] = biological target: purified human Factor XIa (Homo sapiens (Human), UniProt P03951); assay: biochemical; type: biochemical; settings: read-out: Factor XIa Ki
purified human Factor XIa, sequence (P03951 whole entry, looked up): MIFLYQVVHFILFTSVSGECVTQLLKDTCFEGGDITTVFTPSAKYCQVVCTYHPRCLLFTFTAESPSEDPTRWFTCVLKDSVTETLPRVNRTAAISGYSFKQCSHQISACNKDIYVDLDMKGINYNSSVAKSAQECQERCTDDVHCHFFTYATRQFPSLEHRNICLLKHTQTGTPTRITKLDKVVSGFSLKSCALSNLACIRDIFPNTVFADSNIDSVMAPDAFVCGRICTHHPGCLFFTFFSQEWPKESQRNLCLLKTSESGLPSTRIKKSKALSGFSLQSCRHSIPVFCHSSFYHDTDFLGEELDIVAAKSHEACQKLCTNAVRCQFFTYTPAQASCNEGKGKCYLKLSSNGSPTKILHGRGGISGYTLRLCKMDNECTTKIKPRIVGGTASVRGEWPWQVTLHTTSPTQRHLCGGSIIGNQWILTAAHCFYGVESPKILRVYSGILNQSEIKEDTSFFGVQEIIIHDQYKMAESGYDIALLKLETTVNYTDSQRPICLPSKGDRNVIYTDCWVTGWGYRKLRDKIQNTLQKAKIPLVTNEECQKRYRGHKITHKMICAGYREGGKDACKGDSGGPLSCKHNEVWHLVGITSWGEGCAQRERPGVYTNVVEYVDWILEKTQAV
purified human Factor XIa, sequence (P03951 whole entry partner, looked up): as the sequence (P03951 whole entry, looked up) above

purified human plasma kallikrein, sequence (P03952 whole entry, looked up): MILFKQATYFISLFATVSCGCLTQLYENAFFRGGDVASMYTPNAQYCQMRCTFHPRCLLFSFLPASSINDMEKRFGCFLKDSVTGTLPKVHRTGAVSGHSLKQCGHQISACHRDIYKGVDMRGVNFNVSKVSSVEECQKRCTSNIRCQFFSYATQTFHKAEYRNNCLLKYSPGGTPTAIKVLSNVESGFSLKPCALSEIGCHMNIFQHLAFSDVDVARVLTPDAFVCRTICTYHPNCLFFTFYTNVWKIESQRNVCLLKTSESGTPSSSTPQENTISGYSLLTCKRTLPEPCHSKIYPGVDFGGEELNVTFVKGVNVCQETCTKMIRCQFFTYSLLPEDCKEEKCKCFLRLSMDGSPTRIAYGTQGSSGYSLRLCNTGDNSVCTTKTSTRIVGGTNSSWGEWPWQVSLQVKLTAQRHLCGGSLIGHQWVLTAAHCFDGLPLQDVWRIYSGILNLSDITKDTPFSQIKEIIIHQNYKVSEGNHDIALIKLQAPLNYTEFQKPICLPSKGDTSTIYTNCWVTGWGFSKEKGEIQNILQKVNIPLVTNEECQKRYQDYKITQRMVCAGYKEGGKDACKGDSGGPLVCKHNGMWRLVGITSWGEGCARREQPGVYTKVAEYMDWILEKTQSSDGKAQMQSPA
purified human plasma kallikrein, sequence (P03952 whole entry partner, looked up): as the sequence (P03952 whole entry, looked up) above

| SMILES | Ki [1] | Ki [2] |
| --- | --- | --- |
| C[C@@H]1CCC[C@H](N2CCC(c3c(F)cccc3C#N)=CC2=O)c2cc(ccn2)-c2ccccc2NC1=O [Example 50, 3-Fluoro-2-{1-[(10R,14S)-10-methyl-9-oxo-8,16-diazatricyclo[13.3.1.0^2,7]nonadeca-1(19),2,4,6,15,17-hexaen-14-yl]-6-oxo-1,2,3,6-tetrahydropyridin-4-yl}benzonitrile, TFA salt] | 130 nM | 102 nM |
| C[C@@H]1CCC[C@H](N2CCC(c3c(C4CC4)ccc(Cl)c3F)=CC2=O)c2cc(ccn2)-c2ccccc2NC1=O [Example 52, (10R,14S)-14-[4-(3-Chloro-6-cyclopropyl-2-fluorophenyl)-6-oxo-1,2,3,6-tetrahydropyridin-1-yl]-10-methyl-8,16-diazatricyclo[13.3.1.0^2,7]nonadeca-1(19),2,4,6,15,17-hexaen-9-one, TFA salt] | 193 nM | 45.6 nM |
| C[C@@H]1CCC[C@H](N2CCC(c3c(F)ccc(Cl)c3F)=CC2=O)c2cc(ccn2)-c2ccc(NC(=O)OCCO)cc2NC1=O [Example 54, 2-Hydroxyethyl N-[(10R,14S)-14-[4-(3-chloro-2,6-difluorophenyl)-6-oxo-1,2,3,6-tetrahydropyridin-1-yl]-10-methyl-9-oxo-8,16-diazatricyclo[13.3.1.0^2,7]nonadeca-1(19),2,4,6,15,17-hexaen-5-yl]carbamate, TFA salt] | 1 nM | 0.08 nM |
| C[C@@H]1CCC[C@H](N2CCC(c3c(-c4cn[nH]c4)ccc(Cl)c3F)=CC2=O)c2cc(ccn2)-c2ccccc2NC1=O [Example 55, (10R,14S)-14-{4-[3-Chloro-2-fluoro-6-(1H-pyrazol-4-yl)phenyl]-6-oxo-1,2,3,6-tetrahydropyridin-1-yl}-10-methyl-8,16-diazatricyclo[13.3.1.0^2,7]nonadeca-1(19),2,4,6,15,17-hexaen-9-one, TFA salt] | 19 nM | 2.73 nM |
| C[C@@H]1CCC[C@H](N2CCC(c3c(-c4ccncc4)ccc(Cl)c3F)=CC2=O)c2cc(ccn2)-c2ccccc2NC1=O [Example 56, (10R,14S)-14-{4-[3-Chloro-2-fluoro-6-(pyridin-4-yl)phenyl]-6-oxo-1,2,3,6-tetrahydropyridin-1-yl}-10-methyl-8,16-diazatricyclo[13.3.1.0^2,7]nonadeca-1(19),2,4,6,15,17-hexaen-9-one, TFA salt] | 137 nM | 16.5 nM |
| C[C@@H]1CCC[C@H](N2CCC(c3c(-c4ccccc4)ccc(Cl)c3F)=CC2=O)c2cc(ccn2)-c2ccccc2NC1=O [Example 57, (10R,14S)-14-[4-(3-Chloro-2-fluoro-6-phenylphenyl)-6-oxo-1,2,3,6-tetrahydropyridin-1-yl]-10-methyl-8,16-diazatricyclo[13.3.1.0^2,7]nonadeca-1(19),2,4,6,15,17-hexaen-9-one, TFA salt] | 351 nM | 35.6 nM |
| C[C@@H]1CCC[C@H](N2CCC(c3c(-c4cccnc4)ccc(Cl)c3F)=CC2=O)c2cc(ccn2)-c2ccccc2NC1=O [Example 58, (10R,14S)-14-{4-[3-Chloro-2-fluoro-6-(pyridin-3-yl)phenyl]-6-oxo-1,2,3,6-tetrahydropyridin-1-yl}-10-methyl-8,16-diazatricyclo[13.3.1.0^2,7]nonadeca-1(19),2,4,6,15,17-hexaen-9-one, TFA salt] | 179 nM | 15.1 nM |
| Cc1nn(C)cc1-c1ccc(Cl)c(F)c1C1=CC(=O)N([C@H]2CCC[C@@H](C)C(=O)Nc3ccccc3-c3ccnc2c3)CC1 [Example 60, (10R,14S)-14-{4-[3-Chloro-6-(1,3-dimethyl-1H-pyrazol-4-yl)-2-fluorophenyl]-6-oxo-1,2,3,6-tetrahydropyridin-1-yl}-10-methyl-8,16-diazatricyclo[13.3.1.0^2,7]nonadeca-1(19),2,4,6,15,17-hexaen-9-one, TFA salt] | 1090 nM | > 409 nM |
| COC(=O)Nc1cc2c(cc1I)-c1ccnc(c1)[C@@H](N1CCC(c3c(F)ccc(Cl)c3F)=CC1=O)CCC[C@@H](C)C(=O)N2 [Example 62, Methyl N-[(10R,14S)-14-[4-(3-chloro-2,6-difluorophenyl)-6-oxo-1,2,3,6-tetrahydropyridin-1-yl]-4-iodo-10-methyl-9-oxo-8,16-diazatricyclo[13.3.1.0^2,7]nonadeca-1(19),2,4,6,15,17-hexaen-5-yl]carbamate, TFA salt] | 1100 nM | 196 nM |
| CC(=O)NC(=S)Nc1ccc2c(c1)NC(=O)[C@H](C)CCC[C@H](N1CCC(c3c(F)ccc(Cl)c3F)=CC1=O)c1cc-2ccn1 [Example 63, 3-Acetyl-1-[(10R,14S)-14-[4-(3-chloro-2,6-difluorophenyl)-6-oxo-1,2,3,6-tetrahydropyridin-1-yl]-10-methyl-9-oxo-8,16-diazatricyclo[13.3.1.0^2,7]nonadeca-1(19),2,4,6,15,17-hexaen-5-yl]thiourea] | 48 nM | 7.86 nM |
| COC(=O)Nc1ccc2c(c1)NC(=O)[C@H](C)CCC[C@H](N1CCC(c3c(F)ccc(Cl)c3F)=C(C)C1=O)c1cc-2ccn1 [Example 64, Methyl N-[(10R,14S)-14-[4-(3-chloro-2,6-difluorophenyl)-5-methyl-6-oxo-1,2,3,6-tetrahydropyridin-1-yl]-10-methyl-9-oxo-8,16-diazatricyclo[13.3.1.0^2,7]nonadeca-1(19),2,4,6,15,17-hexaen-5-yl]carbamate, TFA salt] | 171 nM | 16.6 nM |
| C[C@@H]1CCC[C@H](n2ccc(-c3cccc(Cl)c3F)cc2=O)c2cc(ccn2)-c2ccccc2NC1=O [Example 65, (10R,14S)-14-[4-(3-Chloro-2-fluorophenyl)-2-oxo-1,2-dihydropyridin-1-yl]-10-methyl-8,16-diazatricyclo[13.3.1.0^2,7]nonadeca-1(19),2,4,6,15,17-hexaen-9-one, TFA salt] | 53 nM | 47.6 nM |
| C[C@@H]1CCC[C@H](N2CCC(c3c(N)ccc(Cl)c3F)=CC2=O)c2cc(ccn2)-c2ccccc2NC1=O [Example 66, (10R,14S)-14-[4-(6-Amino-3-chloro-2-fluorophenyl)-6-oxo-1,2,3,6-tetrahydropyridin-1-yl]-10-methyl-8,16-diazatricyclo[13.3.1.0^2,7]nonadeca-1(19),2,4,6,15,17-hexaen-9-one, TFA salt] | 45 nM | 66.6 nM |
| C[C@@H]1CCC[C@H](N2CCC(c3c(F)ccc(Cl)c3F)=CC2=O)c2cc(ccn2)-c2ccc(Br)cc2NC1=O [Example 69, (10R,14S)-5-Bromo-14-[4-(3-chloro-2,6-difluorophenyl)-6-oxo-1,2,3,6-tetrahydropyridin-1-yl]-10-methyl-8,16-diazatricyclo[13.3.1.0^2,7]nonadeca-1(19),2,4,6,15,17-hexaen-9-one, TFA salt] | 338 nM | 79.2 nM |
| C[C@@H]1CCC[C@H](N2CCC(c3c(F)ccc(Cl)c3F)=CC2=O)c2cc(cc[n+]2[O-])-c2ccc(N)cc2NC1=O [Example 70, (10R,14S)-5-Amino-14-[4-(3-chloro-2,6-difluorophenyl)-6-oxo-1,2,3,6-tetrahydropyridin-1-yl]-10-methyl-9-oxo-8,16-diazatricyclo[13.3.1.0^2,7]nonadeca-1(19),2,4,6,15,17-hexaen-16-ium-16-olate, TFA salt] | 18 nM | 8.02 nM |
| C[C@@H]1CCC[C@H](N2CCC(c3cc(Cl)ccc3-n3cncn3)=CC2=O)c2cc(ccn2)-c2ccccc2NC1=O [Example 71, (10R,14S)-14-{4-[5-Chloro-2-(1H-1,2,4-triazol-1-yl)phenyl]-6-oxo-1,2,3,6-tetrahydropyridin-1-yl}-10-methyl-8,16-diazatricyclo[13.3.1.0^2,7]nonadeca-1(19),2(7),3,5,15,17-hexaen-9-one, TFA salt] | 60 nM | 1.68 nM |
| COC(=O)Nc1ccc2c(c1)NC(=O)[C@H](C)CCC[C@H](N1CC(C)C(c3c(F)ccc(Cl)c3F)=CC1=O)c1cc-2ccn1 (stereo partly drawn) [Example 73, Methyl N-[(10R,14S)-14-[4-(3-chloro-2,6-difluorophenyl)-3-methyl-6-oxo-1,2,3,6-tetrahydropyridin-1-yl]-10-methyl-9-oxo-8,16-diazatricyclo[13.3.1.0^2,7]nonadeca-1(19),2(7),3,5,15,17-hexaen-5-yl]carbamate, TFA salt] | 6 nM | 0.88 nM |
| Cc1ncn(-c2ccc(Cl)cc2C2=CC(=O)N([C@H]3CCC[C@@H](C)C(=O)Nc4ccccc4-c4ccnc3c4)CC2)n1 [Example 74, (10R,14S)-14-{4-[5-Chloro-2-(3-methyl-1H-1,2,4-triazol-1-yl)phenyl]-6-oxo-1,2,3,6-tetrahydropyridin-1-yl}-10-methyl-8,16-diazatricyclo[13.3.1.0^2,7]nonadeca-1(19),2(7),3,5,15,17-hexaen-9-one, TFA salt] | 238 nM | 40.1 nM |
| COC(=O)Nc1ccc2c(c1)NC(=O)[C@H](C)CCC[C@H](n1ncc(-c3c(Br)ccc(Cl)c3F)cc1=O)c1cc-2ccn1 [Example 78, Methyl N-[(10R,14S)-14-[4-(6-bromo-3-chloro-2-fluorophenyl)-6-oxo-1,6-dihydropyridazin-1-yl]-10-methyl-9-oxo-8,16-diazatricyclo[13.3.1.0^2,7]nonadeca-1(19),2(7),3,5,15,17-hexaen-5-yl]carbamate, TFA salt] | 5 nM | 0.98 nM |
| COC(=O)Nc1ccc2c(c1)NC(=O)[C@H](C)CCC[C@H](n1ncc(-c3c(C#N)ccc(Cl)c3F)cc1=O)c1cc-2ccn1 [Example 79, Methyl N-[(10R,14S)-14-[4-(3-chloro-6-cyano-2-fluorophenyl)-6-oxo-1,6-dihydropyridazin-1-yl]-10-methyl-9-oxo-8,16-diazatricyclo[13.3.1.0^2,7]nonadeca-1(19),2(7),3,5,15,17-hexaen-5-yl]carbamate, TFA salt] | 3 nM | 0.55 nM |
| C[C@@H]1CCC[C@H](N2CCC(c3c(F)ccc(Cl)c3F)=CC2=O)c2cc(ccn2)-c2c(F)cccc2NC1=O [Example 80, (10R,14S)-14-[4-(3-Chloro-2,6-difluorophenyl)-6-oxo-1,2,3,6-tetrahydropyridin-1-yl]-3-fluoro-10-methyl-8,16-diazatricyclo[13.3.1.0^2,7]nonadeca-1(19),2(7),3,5,15,17-hexaen-9-one, TFA salt] | 38 nM | 13.6 nM |
